Test results from patent US9192577B2, “Pharmaceutical compositions comprising a basic drug compound, a surfactant, and a physiologically tolerable water soluble acid” (Janssen Pharmaceutica NV, priority 2002, dated 2015).
Read-outs that look alike come from different tables or passages of the source.

Assays:
HIV = assay: in vitro anti-HIV assay: inhibition of HIV-induced cytopathic effect in MT-4 cells (MTT); format: cell-based; conditions: for pSI: pSI = pCC50-pIC50 (selectivity index CC50/IC50); for pIC50 (M): −log IC50
Description: (§1) A rapid, sensitive and automated assay procedure was used for the in vitro evaluation of anti-HIV agents. […] Inhibition of the HIV-induced cytopathic effect was used as the end point. The viability of both HIV- and mock-infected cells was assessed spectrophotometrically via the in situ reduction of 3-(4,5-dimethylthiazol-2-yl)-2,5-diphenyltetrazolium bromide (MTT). The 50% cytotoxic concentration (CC50 in M) was defined as the concentration of compound that reduced the absorbance of the mock-infected control sample by 50%. The percent protection achieved by the compound in HIV-infected cells was calculated by the following formula:
(§2) [formula] whereby (ODT)HIV is the optical density measured with a given concentration of the test compound in HIV-infected cells; (ODC)HIV is the optical density measured for the control untreated HIV-infected cells; (ODC)MOCK is the optical density measured for the control untreated mock-infected cells; all optical density values were determined at 540 nm. The dose achieving 50% protection according to the above formula was defined as the 50% inhibitory concentration (IC50 in M). The ratio of CC50 to IC50 was defined as the selectivity index (SI).

mock-infected MT-4 cells = assay: cytotoxicity (CC50) in mock-infected MT-4 cells (MTT); format: cell-based
Description: as §1, §2

[1] = 50% protection against HIV-induced cytopathic effect in MT-4 cells, MTT

Row | SMILES | pIC50 (M) (HIV; [1]) | IC50 (HIV; Human immunodeficiency virus 1, MT4, −log IC50, 50% protection against HIV-induced cytopathic effect in MT-4 cells, MTT) | pSI (HIV) | pCC50 (M) (mock-infected MT-4 cells) | pCC50 (M) (mock-infected MT-4 cells; −log CC50, mock-infected MT-4 cells, MTT)
1 | Cc1cc(C=C(C#N)CC#N)cc(C)c1Nc1ccnc(Nc2ccc(C#N)cc2)n1 (mixture of isomers) [Compound 147] | 9.4 M |  | −3.7 | 5.7 M | 
2 | Cc1cc(/C=C/C#N)cc(C)c1Nc1ccnc(Nc2ccc(C#N)cc2)n1 [Compound 1, 4-[[4-[[4-(2-cyanoethenyl)-2,6-dimethylphenyl]amino]-2-pyrimidinyl]amino]benzonitrile] |  |  | −4.4 |  | 
3 | Cc1cc(/C=C/C#N)cc(C)c1Nc1ccnc(Nc2ccc(C#N)cc2)n1 [Compound 10] |  | 0.631 nM | −2.9 |  | 6.3 M
4 | Cc1cc(C=CC#N)cc(C)c1Oc1ccnc(Nc2ccc(C#N)cc2)n1 [Compound 25] | 9 M |  | −5 |  | 
5 | CC(=NO)c1cc(C)c(Nc2ccnc(Nc3ccc(C#N)cc3)n2)c(C)c1 [Compound 45] | 8.7 M |  | −3.8 | 5.0 M | 
6 | Cc1cc(CN(C)CCC#N)cc(C)c1Nc1ccnc(Nc2ccc(C#N)cc2)n1 [Compound 75] | 9.0 M |  | −4.0 | 5.0 M | 
7 | C/C(=C\C#N)c1cc(C)c(Nc2ccnc(Nc3ccc(C#N)cc3)n2)c(C)c1 [Compound 84] | 9.0 M |  | −4.5 | 4.5 M | 
8 | Cc1cc(/C=C/C#N)cc(Cl)c1Nc1ccnc(Nc2ccc(C#N)cc2)n1 [Compound 133] | 9.2 M |  | −5.2 | 4 M | 
9 | Cc1cc(CC(C#N)C#N)cc(C)c1Nc1ccnc(Nc2ccc(C#N)cc2)n1 [Compound 144] | 8.6 M |  | −2.2 | 6.4 M | 
10 | Cc1cc(/C=C/c2cccnc2)cc(C)c1Nc1ccnc(Nc2ccc(C#N)cc2)n1 [Compound 146] |  |  | −3 |  | 
11 | CC/C(=C\C#N)c1cc(C)c(Nc2ccnc(Nc3ccc(C#N)cc3)n2)c(C)c1 [Compound 148] | 8.8 M |  | −3.9 | 4.9 M | 
12 | Cc1cc(/C(=C/C#N)C(C)C)cc(C)c1Nc1ccnc(Nc2ccc(C#N)cc2)n1 [Compound 149] | 9.1 M |  | −3.8 | 5.3 M | 
13 | Cc1cc(/C(=C\C#N)C(C)C)cc(C)c1Nc1ccnc(Nc2ccc(C#N)cc2)n1 [Compound 150] | 8.8 M |  | −4.0 | 4.8 M | 
14 | CC(C#N)=Cc1cc(C)c(Nc2ccnc(Nc3ccc(C#N)cc3)n2)c(C)c1 [Compound 151] | 9.1 M |  | −3.6 | 5.5 M | 
15 | CC(C#N)=Cc1cc(C)c(Nc2ccnc(Nc3ccc(C#N)cc3)n2)c(C)c1 [Compound 152] | 9.1 M |  | −4.3 | 4.8 M | 
16 | Cc1cc(CC(C)C#N)cc(C)c1Nc1ccnc(Nc2ccc(C#N)cc2)n1 (stereo not shown) [Compound 153] | 9.2 M |  | −2.9 | 6.3 M | 
17 | CCN(C)C(=O)/C=C/c1cc(C)c(Nc2ccnc(Nc3ccc(C#N)cc3)n2)c(C)c1 [Compound 158] | 8 M |  | −2.5 | 5.5 M | 
18 | Cc1cc(CN(C)C=NC#N)cc(C)c1Oc1ccnc(Nc2ccc(C#N)cc2)n1 [Compound 174] | 8.8 M |  | −3.5 | 5.3 M | 
19 | Cc1cc(/C=C\Br)cc(C)c1Oc1ccnc(Nc2ccc(C#N)cc2)n1 [Compound 177] | 8.3 M |  | <−4.3 | <4.0 M | 
20 | CC(C#N)=Cc1cc(C)c(Oc2ccnc(Nc3ccc(C#N)cc3)n2)c(C)c1 [Compound 178] | 8.8 M |  | −3.1 | 5.7 M | 
21 | CC(C#N)=Cc1cc(C)c(Oc2ccnc(Nc3ccc(C#N)cc3)n2)c(C)c1 [Compound 179] | 8.9 M |  | <−4.9 | <4.0 M | 
22 | Cc1cc(/C=C/C(=O)N(C)CC#N)cc(C)c1Oc1ccnc(Nc2ccc(C#N)cc2)n1 [Compound 212] | 9.1 M |  | −4.1 | 5 M | 
23 | C/C(=C\C#N)c1cc(C)c(Oc2ccnc(Nc3ccc(C#N)cc3)n2)c(C)c1 [Compound 213] | 9 M |  | −4.2 | 4.8 M | 

Now from value to compound, other results behind:

Row | pIC50 (M) (HIV; [1]) | IC50 (HIV; Human immunodeficiency virus 1, MT4, −log IC50, 50% protection against HIV-induced cytopathic effect in MT-4 cells, MTT) | SMILES | pSI (HIV) | pCC50 (M) (mock-infected MT-4 cells) | pCC50 (M) (mock-infected MT-4 cells; −log CC50, mock-infected MT-4 cells, MTT)
24 | 8.6 M |  | Cc1cc(/C=C/C(=O)N(C)CCC#N)cc(C)c1Oc1ccnc(Nc2ccc(C#N)cc2)n1 [Compound 214] | −3.5 | 5.1 M | 
25 | 9.1 M |  | CCN(C)C(=O)/C=C/c1cc(C)c(Oc2ccnc(Nc3ccc(C#N)cc3)n2)c(C)c1 [Compound 215] | −3.6 | 5.5 M | 
26 | 9.1 M |  | Cc1cc(/C=C/C(=O)N(C)C)cc(C)c1Oc1ccnc(Nc2ccc(C#N)cc2)n1 [Compound 219] | −4.1 | 5 M | 
27 | 9.5 M |  | Cc1cc(CCC#N)ccc1Nc1ccnc(Nc2ccc(C#N)cc2)n1 [Compound 227] | <−5.5 | <4.0 M | 
28 | 8.8 M |  | CC(C#N)=Cc1ccc(Nc2ccnc(Nc3ccc(C#N)cc3)n2)c(C)c1 [Compound 229] | <−4.8 | <4.0 M | 
29 | 9.2 M |  | Cc1cc(/C=C/C#N)ccc1Oc1ccnc(Nc2ccc(C#N)cc2)n1 [Compound 230] | <−5.2 | <4.0 M | 
30 | 9.2 M |  | CC(C#N)=Cc1ccc(Oc2ccnc(Nc3ccc(C#N)cc3)n2)c(C)c1 [Compound 231] | <−5.2 | <4.0 M | 
31 | 8.4 M |  | C/C(=C\C#N)c1ccc(Oc2ccnc(Nc3ccc(C#N)cc3)n2)c(C)c1 [Compound 232] | <−4.4 | <4.0 M | 
32 | 9.3 M |  | CC(C#N)=Cc1cc(C)c(Nc2ccnc(Nc3ccc(C#N)cc3)n2)c(Cl)c1 [Compound 233] | −3.6 | 5.7 M | 
33 | 8.7 M |  | Cc1cc(CCC#N)ccc1Oc1ccnc(Nc2ccc(C#N)cc2)n1 [Compound 234] | <−4.7 | <4.0 M | 
34 | 9.3 M |  | Cc1cc(C(C)CC#N)ccc1Oc1ccnc(Nc2ccc(C#N)cc2)n1 (stereo not shown) [Compound 235] | <−5.3 | <4.0 M | 
35 | 8.8 M |  | Cc1cc(CC(C)C#N)ccc1Oc1ccnc(Nc2ccc(C#N)cc2)n1 (stereo not shown) [Compound 236] | <−4.8 | <4.0 M | 
36 | 8.9 M |  | Cc1cc(/C=C/C#N)ccc1Nc1ccnc(Nc2ccc(C#N)cc2)n1 [Compound 237] | <−4.9 | <4.0 M | 
37 | 9.5 M |  | Cc1cc(CC#N)cc(Cl)c1Nc1ccnc(Nc2ccc(C#N)cc2)n1 [Compound 238] | −3.9 | 5.6 M | 
38 | 8.9 M |  | Cc1cc(/C=C/C#N)cc(-c2ccco2)c1Nc1ccnc(Nc2ccc(C#N)cc2)n1 [Compound 239] | −3.9 | 5 M | 
39 | 9.4 M |  | Cc1cc(CN(C)CCC#N)cc(Br)c1Nc1ccnc(Nc2ccc(C#N)cc2)n1 [Compound 241] | −4.1 | 5.3 M | 
40 | 9.2 M |  | N#C/C=C/c1ccc(Nc2ccnc(Nc3ccc(C#N)cc3)n2)c(Br)c1 [Compound 244] | −5.2 | 4 M | 
41 | 8.8 M |  | COc1cc(/C=C/C#N)ccc1Nc1ccnc(Nc2ccc(C#N)cc2)n1 [Compound 245] | −4.8 | 4 M | 
42 | 9.2 M |  | CC(C#N)=Cc1cc(C)c(Nc2ccnc(Nc3ccc(C#N)cc3)n2)c(Br)c1 [Compound 247] | −3 | 6.2 M | 
43 | 9.3 M |  | Cc1cc(/C=C/C#N)cc(Br)c1Nc1ccnc(Nc2ccc(C#N)cc2)n1 [Compound 248] | −3.5 | 5.7 M | 
44 | 8.5 M |  | COc1cc(C=C(C)C#N)ccc1Nc1ccnc(Nc2ccc(C#N)cc2)n1 [Compound 249] | −4.5 | 4 M | 
45 | 8.9 M |  | COc1cc(CCC#N)ccc1Nc1ccnc(Nc2ccc(C#N)cc2)n1 [Compound 251] | −3.9 | 5 M | 
